Experimental data from publication PMC5218480 (PLoS ONE, 2017).

Tested on: MV-4-11 cells
Experiment: Gene expression microarray analysis (Affymetrix PrimeView) and GSEA
Assay type: cell-based, human
Design: RFU PODN (11730768_x_at) / Fold change /veh PODN (11730768_x_at) / RFU LINC00158 (11744669_a_at) / Fold change /veh LINC00158 (11744669_a_at) / RFU DUSP10 (11751237_a_at) / Fold change /veh DUSP10 (11751237_a_at) / RFU ID3 (11757404_x_at) / Fold change /veh ID3 (11757404_x_at) / RFU PLEKHG5 (11737974_s_at) / Fold change /veh PLEKHG5 (11737974_s_at) / RFU LRRC4B (11730491_at) / Fold change /veh LRRC4B (11730491_at) / RFU GIMAP4 (11747438_a_at) / Fold change /veh GIMAP4 (11747438_a_at) / RFU KRT8 (11758183_x_at) / Fold change /veh KRT8 (11758183_x_at) / RFU CNN1 (11734310_a_at) / Fold change /veh CNN1 (11734310_a_at) / RFU VPS37D (11726825_at) / Fold change /veh VPS37D (11726825_at) / RFU C10orf10 (11716522_x_at) / Fold change /veh C10orf10 (11716522_x_at) / RFU KIR2DL2 /// KIR2DL4 /// KIR2DL5A /// KIR2DL5B /// KIR2DS1 /// KIR2DS2 /// KIR2DS3 /// KIR2DS4 /// KIR3DL3 /// KIR3DL3 /// KIR3DS1 (11738374_at) / Fold change /veh KIR2DL2 /// KIR2DL4 /// KIR2DL5A /// KIR2DL5B /// KIR2DS1 /// KIR2DS2 /// KIR2DS3 /// KIR2DS4 /// KIR3DL3 /// KIR3DL3 /// KIR3DS1 (11738374_at) / RFU C1QL1 (11718748_at) / Fold change /veh C1QL1 (11718748_at) / RFU TMPRSS4 (11747572_a_at) / Fold change /veh TMPRSS4 (11747572_a_at) / RFU HAMP (11756126_x_at) / Fold change /veh HAMP (11756126_x_at) / RFU RNFT2 (11725882_a_at) / Fold change /veh RNFT2 (11725882_a_at) / RFU NR4A2 (11747474_a_at) / Fold change /veh NR4A2 (11747474_a_at) / RFU ABCC12 (11746883_a_at) / Fold change /veh ABCC12 (11746883_a_at) / RFU TMEM136 (11760407_x_at) / Fold change /veh TMEM136 (11760407_x_at) / RFU CLDN22 /// WWC2 (11732394_at) / Fold change /veh CLDN22 /// WWC2 (11732394_at) / RFU HLA-DPB1 (11760878_x_at) / Fold change /veh HLA-DPB1 (11760878_x_at) / RFU SPINT1 (11716480_a_at) / Fold change /veh SPINT1 (11716480_a_at) / RFU GAP43 (11754022_s_at) / Fold change /veh GAP43 (11754022_s_at) / RFU A4GNT (11735810_at) / Fold change /veh A4GNT (11735810_at) / RFU PRB3 (11715151_x_at) / Fold change /veh PRB3 (11715151_x_at) / RFU TUBB4B (11761932_at) / Fold change /veh TUBB4B (11761932_at) / RFU CAPN14 (11732068_a_at) / Fold change /veh CAPN14 (11732068_a_at) / RFU TMCC2 (11721928_a_at) / Fold change /veh TMCC2 (11721928_a_at) / RFU IRGQ (11745062_a_at) / Fold change /veh IRGQ (11745062_a_at) / RFU FAM174B (11720279_a_at) / Fold change /veh FAM174B (11720279_a_at) / RFU TMPRSS4 (11748680_a_at) / Fold change /veh TMPRSS4 (11748680_a_at) / RFU FAM212B (11763350_a_at) / Fold change /veh FAM212B (11763350_a_at) / RFU PLEKHG5 (11743358_a_at) / Fold change /veh PLEKHG5 (11743358_a_at) / RFU ZSCAN30 (11745921_a_at) / Fold change /veh ZSCAN30 (11745921_a_at) / RFU CMKLR1 (11741424_a_at) / Fold change /veh CMKLR1 (11741424_a_at) / RFU LOC101060620 /// MAPK8IP1 (11723275_at) / Fold change /veh LOC101060620 /// MAPK8IP1 (11723275_at) / RFU SPTSSB (11747773_x_at) / Fold change /veh SPTSSB (11747773_x_at) / RFU PRSS12 (11739890_at) / Fold change /veh PRSS12 (11739890_at) / RFU BIN1 (11741810_x_at) / Fold change /veh BIN1 (11741810_x_at) / RFU WNT11 (11732464_a_at) / Fold change /veh WNT11 (11732464_a_at) / RFU C10orf10 (11716521_a_at) / Fold change /veh C10orf10 (11716521_a_at) / RFU C5orf56 (11738089_at) / Fold change /veh C5orf56 (11738089_at) / RFU CYB561 (11721691_x_at) / Fold change /veh CYB561 (11721691_x_at) / RFU ANKRD19P (11752326_a_at) / Fold change /veh ANKRD19P (11752326_a_at) / RFU OR2T12 /// OR2T33 /// OR2T8 (11738714_s_at) / Fold change /veh OR2T12 /// OR2T33 /// OR2T8 (11738714_s_at) / RFU VCAN (11748164_a_at) / Fold change /veh VCAN (11748164_a_at) / RFU JSRP1 (11732532_at) / Fold change /veh JSRP1 (11732532_at) / RFU KRTAP10-11 (11738290_x_at) / Fold change /veh KRTAP10-11 (11738290_x_at) / RFU MYO3A (11730013_a_at) / Fold change /veh MYO3A (11730013_a_at) / RFU EBF3 (11725865_a_at) / Fold change /veh EBF3 (11725865_a_at) / RFU CAMK2N1 (11719241_x_at) / Fold change /veh CAMK2N1 (11719241_x_at) / RFU C5orf56 (11738088_a_at) / Fold change /veh C5orf56 (11738088_a_at) / RFU OLFML3 (11715873_a_at) / Fold change /veh OLFML3 (11715873_a_at) / RFU LOC100653217 /// NTM (11731650_a_at) / Fold change /veh LOC100653217 /// NTM (11731650_a_at) / RFU MAPK11 (11762145_a_at) / Fold change /veh MAPK11 (11762145_a_at) / RFU FIZ1 (11724087_x_at) / Fold change /veh FIZ1 (11724087_x_at) / RFU OASL (11726364_x_at) / Fold change /veh OASL (11726364_x_at) / RFU SOX15 (11748057_x_at) / Fold change /veh SOX15 (11748057_x_at) / RFU CD79A (11719716_a_at) / Fold change /veh CD79A (11719716_a_at) / RFU HIST1H1D (11736915_at) / Fold change /veh HIST1H1D (11736915_at) / RFU CASKIN2 (11723855_a_at) / Fold change /veh CASKIN2 (11723855_a_at) / RFU LOC730098 (11760151_x_at) / Fold change /veh LOC730098 (11760151_x_at) / RFU OR4N2 (11742367_at) / Fold change /veh OR4N2 (11742367_at) / RFU PRRT2 (11749266_a_at) / Fold change /veh PRRT2 (11749266_a_at) / RFU SNX32 (11753110_a_at) / Fold change /veh SNX32 (11753110_a_at) / RFU CDHR5 (11726645_a_at) / Fold change /veh CDHR5 (11726645_a_at) / RFU RCAN1 (11760418_a_at) / Fold change /veh RCAN1 (11760418_a_at) / RFU FAM167A (11723789_a_at) / Fold change /veh FAM167A (11723789_a_at) / RFU FAM26E (11764081_at) / Fold change /veh FAM26E (11764081_at) / RFU ISYNA1 (11749810_s_at) / Fold change /veh ISYNA1 (11749810_s_at) / RFU ACY1 (11761880_at) / Fold change /veh ACY1 (11761880_at) / RFU 11764098_at / Fold change /veh 11764098_at / RFU SAMD14 (11745864_x_at) / Fold change /veh SAMD14 (11745864_x_at) / RFU NPB (11741838_a_at) / Fold change /veh NPB (11741838_a_at) / RFU TMPRSS6 (11731388_a_at) / Fold change /veh TMPRSS6 (11731388_a_at) / RFU KRTAP10-2 (11738614_at) / Fold change /veh KRTAP10-2 (11738614_at) / RFU ARHGAP8 /// PRR5-ARHGAP8 (11727945_x_at) / Fold change /veh ARHGAP8 /// PRR5-ARHGAP8 (11727945_x_at) / RFU KRTAP5-7 /// NADSYN1 (11734609_at) / Fold change /veh KRTAP5-7 /// NADSYN1 (11734609_at) / RFU RASL12 (11751679_a_at) / Fold change /veh RASL12 (11751679_a_at) / RFU CDKN2B (11736163_a_at) / Fold change /veh CDKN2B (11736163_a_at) / RFU PRF1 (11729649_at) / Fold change /veh PRF1 (11729649_at) / RFU, ZNF638 /// ZNF638-IT1 / Fold change vs veh, ZNF638 /// ZNF638-IT1 / RFU, PANK3 / Fold change vs veh, PANK3 / RFU, SH3YL1 / Fold change vs veh, SH3YL1 / RFU, ZEB2 / Fold change vs veh, ZEB2 / RFU, NRIP1 / Fold change vs veh, NRIP1 / RFU, PTTG1IP / Fold change vs veh, PTTG1IP / RFU, CAPN2 / Fold change vs veh, CAPN2 / RFU, MED14 / Fold change vs veh, MED14 / RFU, SNORA58 / Fold change vs veh, SNORA58 / RFU, C1orf63 / Fold change vs veh, C1orf63 / RFU, LRRFIP1 / Fold change vs veh, LRRFIP1 / RFU, NDUFAF7 / Fold change vs veh, NDUFAF7 / RFU, SLC12A2 / Fold change vs veh, SLC12A2 / RFU, IBTK / Fold change vs veh, IBTK / RFU, ESF1 / Fold change vs veh, ESF1 / Fold change vs veh, TMEM50B / RFU, TAOK1 / Fold change vs veh, TAOK1 / RFU, ACBD3 / Fold change vs veh, ACBD3 / RFU, TMA16 / Fold change vs veh, TMA16 / RFU, RWDD3 / Fold change vs veh, RWDD3 / RFU, BCAT1 / Fold change vs veh, BCAT1 / RFU, EDEM3 / Fold change vs veh, EDEM3 / RFU, TMEM33 / Fold change vs veh, TMEM33 / RFU, WDR75 / Fold change vs veh, WDR75 / RFU, AHCTF1 / Fold change vs veh, AHCTF1 / RFU, TFRC / Fold change vs veh, TFRC / RFU, ZDHHC17 / Fold change vs veh, ZDHHC17 / RFU, NOM1 / Fold change vs veh, NOM1 / RFU, ARL8B / Fold change vs veh, ARL8B / RFU, ZBTB11 / Fold change vs veh, ZBTB11 / RFU, TAMM41 / Fold change vs veh, TAMM41 / RFU, KIAA1704 /// LOC100996395 / Fold change vs veh, KIAA1704 /// LOC100996395 / RFU, ING1 / Fold change vs veh, ING1 / RFU, TRMT61B / Fold change vs veh, TRMT61B / RFU, FUBP3 / Fold change vs veh, FUBP3 / RFU, TP53 / Fold change vs veh, TP53 / RFU, TNKS2 / Fold change vs veh, TNKS2 / RFU, ZFP14 / Fold change vs veh, ZFP14 / RFU, ACTR2 / Fold change vs veh, ACTR2 / RFU, PPP3R1 / Fold change vs veh, PPP3R1 / RFU, PIK3R1 / Fold change vs veh, PIK3R1 / RFU, HNRNPA1 / Fold change vs veh, HNRNPA1 / RFU, RNF170 / Fold change vs veh, RNF170 / RFU, ZNF28 / Fold change vs veh, ZNF28 / RFU, RNGTT / Fold change vs veh, RNGTT / RFU, OGT / Fold change vs veh, OGT / RFU, BRD1 / Fold change vs veh, BRD1 / RFU, MARS / Fold change vs veh, MARS / RFU, ZNF655 / Fold change vs veh, ZNF655 / RFU, FAHD1 / Fold change vs veh, FAHD1 / RFU, BDP1 / Fold change vs veh, BDP1 / RFU, LRRCC1 / Fold change vs veh, LRRCC1 / RFU, ARID1A / Fold change vs veh, ARID1A / RFU, ZNF146 / Fold change vs veh, ZNF146 / RFU, ZNF330 / Fold change vs veh, ZNF330 / RFU, GPN3 / Fold change vs veh, GPN3 / RFU, C9orf123 / Fold change vs veh, C9orf123 / RFU, N4BP2L2 / Fold change vs veh, N4BP2L2 / RFU, ARFIP1 / Fold change vs veh, ARFIP1 / RFU, FAM179B / Fold change vs veh, FAM179B / RFU, BCL10 / Fold change vs veh, BCL10 / RFU, UHRF1BP1L / Fold change vs veh, UHRF1BP1L / RFU, BET1 / Fold change vs veh, BET1 / RFU, CNOT2 / Fold change vs veh, CNOT2 / RFU, ZNF268 / Fold change vs veh, ZNF268 / Fold change vs veh, ZNF507 / RFU, DGCR2 / Fold change vs veh, DGCR2 / RFU, WDSUB1 / Fold change vs veh, WDSUB1 / Fold change vs veh, HSP90B1 /// MIR3652 / RFU, ADSS / Fold change vs veh, ADSS / RFU, GK / Fold change vs veh, GK / RFU, ZNF148 / Fold change vs veh, ZNF148 / RFU, TAF9 / Fold change vs veh, TAF9 / RFU, SLC1A5 / Fold change vs veh, SLC1A5 / RFU, SLMO2 / Fold change vs veh, SLMO2 / RFU, ABCC4 / Fold change vs veh, ABCC4 / RFU, LOC101060439 /// RAP1B / Fold change vs veh, LOC101060439 /// RAP1B / RFU, RFX7 / Fold change vs veh, RFX7 / RFU, GTPBP10 / Fold change vs veh, GTPBP10 / RFU, CNEP1R1 / Fold change vs veh, CNEP1R1 / RFU, BIVM-ERCC5 /// ERCC5 / Fold change vs veh, BIVM-ERCC5 /// ERCC5 / RFU, ILF3 / Fold change vs veh, ILF3 / RFU 11762660_at / Fold change /veh 11762660_at / RFU VCAN (11757783_s_at) / Fold change /veh VCAN (11757783_s_at) / RFU DDX43 (11728927_at) / Fold change /veh DDX43 (11728927_at) / RFU KRT8 (11758188_x_at) / Fold change /veh KRT8 (11758188_x_at) / RFU NKD1 (11759106_at) / Fold change /veh NKD1 (11759106_at) / RFU SRD5A1 (11742802_a_at) / Fold change /veh SRD5A1 (11742802_a_at) / RFU TPSAB1 /// TPSB2 (11721975_s_at) / Fold change /veh TPSAB1 /// TPSB2 (11721975_s_at) / RFU GSTM3 (11746129_a_at) / Fold change /veh GSTM3 (11746129_a_at) / RFU IL23R (11737362_x_at) / Fold change /veh IL23R (11737362_x_at) / RFU TMEM51 (11727254_a_at) / Fold change /veh TMEM51 (11727254_a_at) / RFU PIWIL2 (11732686_x_at) / Fold change /veh PIWIL2 (11732686_x_at) / RFU ORM1 (11744905_x_at) / Fold change /veh ORM1 (11744905_x_at) / RFU CCDC152 (11743942_at) / Fold change /veh CCDC152 (11743942_at) / RFU ECM1 (11717891_a_at) / Fold change /veh ECM1 (11717891_a_at) / RFU IL23R (11748794_a_at) / Fold change /veh IL23R (11748794_a_at) / RFU TNFAIP8L3 (11732012_x_at) / Fold change /veh TNFAIP8L3 (11732012_x_at) / RFU MBOAT4 (11741988_at) / Fold change /veh MBOAT4 (11741988_at) / RFU 11764193_at / Fold change /veh 11764193_at / RFU TMEM53 (11763286_at) / Fold change /veh TMEM53 (11763286_at) / RFU MAGEB2 (11727129_at) / Fold change /veh MAGEB2 (11727129_at) / RFU TMEM200A (11744735_a_at) / Fold change /veh TMEM200A (11744735_a_at) / RFU CCDC152 (11751479_a_at) / Fold change /veh CCDC152 (11751479_a_at) / RFU FAM211A (11726209_a_at) / Fold change /veh FAM211A (11726209_a_at) / RFU RGS16 (11746705_a_at) / Fold change /veh RGS16 (11746705_a_at) / RFU VCAN (11755009_s_at) / Fold change /veh VCAN (11755009_s_at) / RFU RHOB (11743442_s_at) / Fold change /veh RHOB (11743442_s_at) / RFU RGS16 (11720943_a_at) / Fold change /veh RGS16 (11720943_a_at) / RFU RGS16 (11720944_at) / Fold change /veh RGS16 (11720944_at) / RFU, VPS4B / Fold change vs veh, VPS4B / RFU, CREB1 / Fold change vs veh, CREB1 / RFU, DNAJC13 / Fold change vs veh, DNAJC13 / RFU, GNAQ / Fold change vs veh, GNAQ / RFU, CDK5R1 / Fold change vs veh, CDK5R1 / RFU, ZRANB3 / Fold change vs veh, ZRANB3 / RFU, CUL4A / Fold change vs veh, CUL4A / RFU, CCNY / Fold change vs veh, CCNY / RFU, UFL1 / Fold change vs veh, UFL1 / RFU, COG3 / Fold change vs veh, COG3 / RFU, DIAPH2 / Fold change vs veh, DIAPH2 / RFU, SKA2 / Fold change vs veh, SKA2 / RFU, AFF3 / Fold change vs veh, AFF3 / RFU, LMF1 / Fold change vs veh, LMF1 / RFU, IPO11 / Fold change vs veh, IPO11 / RFU, DFFB / Fold change vs veh, DFFB / RFU, FOXP1 / Fold change vs veh, FOXP1 / RFU, CARD8 / Fold change vs veh, CARD8 / RFU, STRN3 / Fold change vs veh, STRN3 / RFU, ADK / Fold change vs veh, ADK / RFU, RASSF2 / Fold change vs veh, RASSF2 / RFU, WIPF1 / Fold change vs veh, WIPF1 / RFU, LARP1B / Fold change vs veh, LARP1B / RFU, RASA1 / Fold change vs veh, RASA1 / RFU, RB1 / Fold change vs veh, RB1 / RFU, PPFIA1 / Fold change vs veh, PPFIA1 / RFU, MAT2A / Fold change vs veh, MAT2A / RFU, CCT5 / Fold change vs veh, CCT5 / RFU, WDR92 / Fold change vs veh, WDR92 / RFU, CUX1 / Fold change vs veh, CUX1 / RFU, TTC7A / Fold change vs veh, TTC7A / RFU, TMEM135 / Fold change vs veh, TMEM135 / RFU, DEPTOR / Fold change vs veh, DEPTOR / RFU, CPM / Fold change vs veh, CPM / RFU, DNAJB6 / Fold change vs veh, DNAJB6 / RFU, CACNA2D3 / Fold change vs veh, CACNA2D3 / RFU, DTX4 / Fold change vs veh, DTX4 / RFU, TFCP2 / Fold change vs veh, TFCP2 / RFU, GMCL1 /// GMCL1P1 / Fold change vs veh, GMCL1 /// GMCL1P1 / RFU, AEBP2 / Fold change vs veh, AEBP2 / RFU, SNHG1 /// SNORD22 /// SNORD25 /// SNORD26 /// SNORD27 /// SNORD28 /// SNORD29 /// SNORD31 / Fold change vs veh, SNHG1 /// SNORD22 /// SNORD25 /// SNORD26 /// SNORD27 /// SNORD28 /// SNORD29 /// SNORD31 / Fold change (Aza/veh), C12orf56 (ProbeSet 11735607_a_at) / Fold change (ACY-1035/veh), C12orf56 (ProbeSet 11735607_a_at) / Fold change (Aza/veh), FGFR1OP (ProbeSet 11751329_s_at) / Fold change (ACY-1035/veh), FGFR1OP (ProbeSet 11751329_s_at) / Fold change (Aza/veh), VPS36 (ProbeSet 11739960_a_at) / Fold change (ACY-1035/veh), VPS36 (ProbeSet 11739960_a_at) / RFU SYPL1 (11715823_x_at) / Fold change /veh SYPL1 (11715823_x_at) / RFU IGFBP7 (11715501_s_at) / Fold change /veh IGFBP7 (11715501_s_at) / RFU REEP3 (11722064_at) / Fold change /veh REEP3 (11722064_at) / RFU IGLL1 (11728026_x_at) / Fold change /veh IGLL1 (11728026_x_at): dose or concentration left out as unconfirmed
Details: ProbeSet 11723944_a_at; LIST B

Structure (SMILES): Nc1ccc(-c2cccs2)cc1NC(=O)c1ccc2c(c1)cc(C1CC1)n2CCN1CCOCC1 [ACY-1035]
- RFU, PTTG1IP: 718.82 RFU
